One block for each molecule: values may come before it.
How the values were obtained:
RKO = test: Cell viability assay (MTT), RKO; type: cell-based; settings: read-out: RKO EC50 (72 h), RKO cells
Protocol: Row H of the plate contained the controls. Wells H1-H3 received 20 μL of assay media.
Further dilutions were used for potent peptides.
80 µL of assay media was removed from each well. […] Cell viability was analyzed against the DMSO controls.

MDM2 = MDM2 (Homo sapiens, UniProt Q00987); test: Competitive fluorescence polarization assay for MDM2; type: binding
Chain of MDM2 (Q00987 1-125): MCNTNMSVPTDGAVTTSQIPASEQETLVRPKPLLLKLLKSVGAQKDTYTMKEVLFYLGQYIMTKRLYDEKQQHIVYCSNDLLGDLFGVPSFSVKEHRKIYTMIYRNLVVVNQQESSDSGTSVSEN
Protocol: 1 mM of FAM-labeled linear peptide (in 100% DMSO) was diluted to 100 μM with DMSO (dilution 1:10). Then, diluted solution was further diluted from 100 μM to 10 μM with water (dilution 1:10), and diluted again with FP buffer from 10 μM to 40 nM (dilution 1:250). […] The diluted FAM-labeled peptides were kept in the dark until use.
Unlabeled peptide dose plates were prepared with FP buffer starting with 1 μM (final) of the peptide. […] 10 mM of the solution (in 100% DMSO) with DMSO to 5 mM (dilution 1:2); dilution from 5 mM to 500 μM with H2O (dilution 1:10); and dilution with FP buffer from 500 μM to 20 μM (dilution 1:25). […] 10 μl of 10 nM (4×) of FAM-labeled peptide was added into each well, and the wells were incubated for 3 h before being read.

MDMX = molecular target: T1, MDMX (Homo sapiens, UniProt O15151); test: Competitive fluorescence polarization assay for MDMX; type: binding
T1 sequence (O15151 1-125): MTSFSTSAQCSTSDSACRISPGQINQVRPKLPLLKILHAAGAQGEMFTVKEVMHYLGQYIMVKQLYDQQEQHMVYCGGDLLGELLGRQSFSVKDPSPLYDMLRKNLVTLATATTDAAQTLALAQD
Protocol: MDMX (40 kD) was diluted into FP buffer (high-salt buffer 200 mM NaCl, 5 mM CHAPS, pH 7.5) to make a 300 nM (2×) working stock solution. 20 μl of the 300 nM (2×) of protein stock solution was added into each well of 96-well black microplate. 1 mM (in 100% DMSO) of a FAM-labeled linear peptide was diluted with DMSO to a concentration of 100 μM (dilution 1:10). The solution was diluted from 100 μM to 10 μM with water (dilution 1:10), and diluted further with FP buffer from 10 μM to 40 nM (dilution 1:250). […] The diluted FAM-labeled peptide was kept in the dark until use. An unlabeled peptide dose plate was prepared with FP buffer starting with a concentration of 5 μM (final) of a peptide. […] 10 mM (in 100% DMSO) of the solution was diluted with DMSO to prepare a 5 mM (dilution 1:2) solution. The solution was diluted from 5 mM to 500 μM with H2O (dilution 1:10), and diluted further with FP buffer from 500 μM to 20 μM (dilution 1:25). […] 10 μl of the serially diluted unlabeled peptides were added to each well, which was filled with 20 μl of the 300 nM protein solution. 10 μl of the 10 nM (4×) FAM-labeled peptide solution was added into each well, and the wells were incubated for 3 h before reading.

MC38 colon cancer tumors = test: Anti-tumor activity of topotecan with AP-1, MC38 model; type: in vivo, C57BL/6 mice; settings: MC38, topotecan days 1-5, FIG. 17A
Protocol: (§1) C57BL/6 mice bearing established syngeneic MC38 colon cancer tumors, or nu/nu mice bearing established H69 or H211 xenograft tumors were treated with topotecan on days 1-5 and either AP-1 or vehicle on days 0-4. Median tumor volume and mouse survival was assessed.

H69 xenograft tumors = test: Anti-tumor activity of topotecan with AP-1, H69 model; type: in vivo, nu/nu mice; settings: H69, topotecan days 1-5, FIG. 17B
Protocol: as §1

H211 xenograft tumors = test: Anti-tumor activity of topotecan with AP-1, H211 model; type: in vivo, nu/nu mice; settings: H211, topotecan days 1-5, FIG. 17C
Protocol: as §1

gut tissue = test: Topotecan-induced mucositis (gut histopathology); type: in vivo, C57BL/6 mice; settings: Group 3: […] topotecan days 2-6, 10 mice
Protocol: The effect of a peptidomimetic macrocycle of the disclosure on topotecan-induced mucositis is assessed in a controlled, in vivo study. Four groups of mice (10 mice per group) are involved in the study, and administration of agents occurs over a 6-day treatment period. The first group of mice (Group 1) is treated with a vehicle control on days 2, 3, 4, 5, and 6 of the treatment period. The second group of mice (Group 2) is treated intravenously with 2.4 mg/kg of a peptidomimetic macrocycle on days 1, 2, 3, 4, and 5 of a 6-day treatment period. The third group of mice (Group 3) is treated with 1.5 mg/kg of topotecan on days 2, 3, 4, 5, and 6 of the 6-day treatment period. The fourth group of mice (Group 4) is treated with 2.4 mg/kg of the peptidomimetic macrocycle on days 1, 2, 3, 4, and 5 of the 6-day treatment period and 1.5 mg/kg of topotecan on days 2, 3, 4, 5, and 6 of the 6-day treatment period. Gut samples are then taken from mice on days 7 and 9 post treatment. Histopathology analysis of gut samples is performed to assess hypertrophy/hyperplasia. In some embodiments, all gut samples from mice in Groups 1 and 2 receive a hypertrophy/hyperplasia score of 0. […]
C57BL/6 mice (n=10 per group) were divided into four treatment groups. […] Images and gut tissues and quantification of pathology scores can be seen in FIG. 24A.

Compound: CC[C@H](C)[C@H](NC(=O)[C@H](C)NC(=O)[C@H](C)NC(=O)[C@]1(C)CCCC=CCCCCCC[C@@](C)(NC(=O)[C@H](Cc2ccccc2)NC(=O)[C@@H](NC(=O)[C@H](CC(C)C)NC(=O)CN(C)C)[C@@H](C)O)C(=O)N[C@@H](CCC(=O)O)C(=O)N[C@@H](Cc2ccc(C(=O)O)cc2)C(=O)N[C@@H](Cc2c[nH]c3ccccc23)C(=O)N[C@@H](C)C(=O)N[C@@H](CCC(N)=O)C(=O)N[C@@H](CC2CCC2)C(=O)N1)C(=O)N[C@H](C)C(N)=O (single isomer, unassigned) [compound 440]
EC50 (RKO): 1 to 30 µM

Compound: CC(=O)N[C@@H](CC(C)C)C(=O)N[C@H](C(=O)N[C@@H](Cc1ccccc1)C(=O)N[C@]1(C)CCCCCCC=CCCC[C@@](C)(C(=O)N[C@@H](CO)C(=O)N[C@@H](C)C(=O)N[C@@H](C)C(N)=O)NC(=O)[C@H](C2CCCC2)NC(=O)[C@H](CCC(N)=O)NC(=O)[C@H](C)NC(=O)[C@H](Cc2c[nH]c3ccccc23)NC(=O)[C@H](Cc2ccc(O)cc2)NC(=O)[C@H](CCC(=O)O)NC1=O)[C@@H](C)O (single isomer, unassigned) [compound 150]
EC50 (RKO): 1 to 30 µM

Compound: CC(=O)N[C@@H](CC(C)C)C(=O)N[C@H](C(=O)N[C@@H](Cc1ccccc1)C(=O)N[C@]1(C)CCCCCCC=CCCC[C@@](C)(C(=O)N[C@@H](CO)C(=O)N[C@@H](C)C(=O)N[C@@H](C)C(N)=O)NC(=O)[C@H](CC2CCCCC2)NC(=O)[C@H](CCC(N)=O)NC(=O)[C@H](C)NC(=O)[C@H](Cc2c[nH]c3ccccc23)NC(=O)[C@H](Cc2ccc(O)cc2)NC(=O)[C@H](CCC(=O)O)NC1=O)[C@@H](C)O (single isomer, unassigned) [compound 148]
EC50 (RKO): 1 to 30 µM

Compound: CCCC[C@H](NC(=O)[C@H](C)NC(=O)[C@H](C)NC(=O)[C@]1(C)CCC/C=C/CCCCCC[C@@](C)(NC(=O)[C@H](Cc2ccccc2)NC(=O)[C@@H](NC(=O)[C@H](CC(C)C)NC(C)=O)[C@@H](C)O)C(=O)N[C@@H](C)C(=O)N[C@@H](Cc2ccc(O)cc2)C(=O)N[C@@](C)(Cc2c[nH]c3ccccc23)C(=O)N[C@@H](C)C(=O)N[C@@H](CCC(N)=O)C(=O)N[C@@H](CC(C)C)C(=O)N1)C(=O)N[C@@H](C)C(N)=O [compound 388]
EC50 (RKO): 1 to 30 µM

IC50 (MDM2): 100 to 1000 nM
Ki (MDM2): 100 to 1000 nM
IC50 (MDMX): > 1000 nM
Ki (MDMX): > 1000 nM
Compound: CC(=O)N[C@@H](CC(C)C)C(=O)N[C@H](C(=O)N[C@@H](C)C(=O)N[C@]1(C)CCCCCCC=CCCC[C@@](C)(C(=O)N[C@@H](CO)C(=O)N[C@@H](C)C(=O)N[C@@H](C)C(N)=O)NC(=O)[C@H](CC2CCC2)NC(=O)[C@H](CCC(N)=O)NC(=O)[C@H](C)NC(=O)[C@H](Cc2c[nH]c3ccccc23)NC(=O)[C@H](Cc2ccc(O)cc2)NC(=O)[C@H](CCC(=O)O)NC1=O)[C@@H](C)O (single isomer, unassigned) [compound 252]

Compound: CC[C@@]1(O)C(=O)OCc2c1cc1n(c2=O)Cc2cc3c(CN(C)C)c(O)ccc3nc2-1 [topotecan]
survival (MC38 colon cancer tumors): increased
tumor volumes (MC38 colon cancer tumors): decreased
survival (H69 xenograft tumors): increased
tumor volumes (H69 xenograft tumors): decreased
survival (H211 xenograft tumors): increased
tumor volumes (H211 xenograft tumors): decreased
mice with hyperplasia/hypertrophy score of 3 (gut tissue): about 70%
mice with hypertrophy/hyperplasia score of 2 (gut tissue): about 30%

Compound: CC(C)C[C@H](NC(=O)CN(C)C)C(=O)N[C@H](C(=O)N[C@@H](Cc1ccccc1)C(=O)N[C@]1(C)CCCCCCC=CCCC[C@@](C)(C(=O)N[C@@H](CO)C(=O)N[C@@H](C)C(=O)N[C@@H](C)C(N)=O)NC(=O)[C@H](CC2CCC2)NC(=O)[C@H](CCC(N)=O)NC(=O)[C@H](C)NC(=O)[C@H](Cc2c[nH]c3ccccc23)NC(=O)[C@H](Cc2ccc(O)cc2)NC(=O)[C@H](CCC(=O)O)NC1=O)[C@@H](C)O [compound 435]
EC50 (RKO): 1 to 30 µM

Compound: CC(=O)N[C@@H](CCC(=O)O)C(=O)N[C@H](C(=O)N[C@@H](Cc1ccccc1)C(=O)N[C@]1(C)CCCCCCC=CCCC[C@@](C)(C(=O)N[C@@H](C)C(=O)N[C@@H](C)C(=O)N[C@@H](C)C(=O)N[C@@H](C)C(=O)N[C@@H](C)C(=O)N[C@H](C)C(N)=O)NC(=O)[C@H](CC(C)C)NC(=O)[C@H](CCC(N)=O)NC(=O)[C@H](C)NC(=O)[C@H](Cc2c[nH]c3ccccc23)NC(=O)[C@H](Cc2ccc(O)cc2)NC(=O)[C@H](CCC(=O)O)NC1=O)[C@@H](C)O (single isomer, unassigned) [compound 341]
EC50 (RKO): 1 to 30 µM

Compound: CC(=O)N[C@@H](C)C(=O)N[C@@H](CC(C)C)C(=O)N[C@H](C(=O)N[C@@H](Cc1ccccc1)C(=O)N[C@]1(C)CCCCCCC=CCCC[C@@](C)(C(=O)N[C@@H](CO)C(=O)N[C@@H](C)C(=O)N[C@@H](C)C(=O)N[C@H](C)C(N)=O)NC(=O)[C@H](CC2CCC2)NC(=O)[C@H](CCC(N)=O)NC(=O)[C@H](C)NC(=O)[C@H](Cc2c[nH]c3ccccc23)NC(=O)[C@H](Cc2ccc(O)cc2)NC(=O)[C@H](CCC(=O)O)NC1=O)[C@@H](C)O (single isomer, unassigned) [compound 355]
EC50 (RKO): 1 to 30 µM

Compound: CC(=O)N[C@@H](CC(C)C)C(=O)N[C@H](C(=O)N[C@@H](Cc1ccccc1)C(=O)N[C@]1(C)CCCCCCC=CCCC[C@@](C)(C(=O)N[C@@H](CO)C(=O)N[C@@H](C)C(=O)N[C@@H](C)C(=O)N[C@H](C)C(N)=O)NC(=O)[C@H](CC2CCC2)NC(=O)[C@H](CCC(N)=O)NC(=O)[C@H](C)NC(=O)[C@H](Cc2c[nH]c3ccccc23)NC(=O)[C@H](Cc2ccc(O)cc2)NC(=O)[C@H](CCC(=O)O)NC1=O)[C@@H](C)O (single isomer, unassigned) [compound 353]
EC50 (RKO): 1 to 30 µM

Compound: CC(=O)N[C@@H](C)C(=O)N[C@@H](C)C(=O)N[C@@H](CC(C)C)C(=O)N[C@H](C(=O)N[C@@H](Cc1ccccc1)C(=O)N[C@]1(C)CCCCCCC=CCCC[C@@](C)(C(=O)N[C@@H](CO)C(=O)N[C@@H](C)C(=O)N[C@@H](C)C(=O)N[C@@H](C)C(=O)N[C@H](C)C(N)=O)NC(=O)[C@H](CC2CCC2)NC(=O)[C@H](CCC(N)=O)NC(=O)[C@H](C)NC(=O)[C@H](Cc2c[nH]c3ccccc23)NC(=O)[C@H](Cc2ccc(O)cc2)NC(=O)[C@H](CCC(=O)O)NC1=O)[C@@H](C)O (single isomer, unassigned) [compound 358]
EC50 (RKO): 1 to 30 µM

Compound: CC(=O)N[C@@H](C)C(=O)N[C@@H](C)C(=O)N[C@@H](CC(C)C)C(=O)N[C@H](C(=O)N[C@@H](Cc1ccccc1)C(=O)N[C@]1(C)CCCCCCC=CCCC[C@@](C)(C(=O)N[C@@H](CO)C(=O)N[C@@H](C)C(=O)N[C@@H](C)C(=O)N[C@@H](C)C(=O)N[C@H](C)C(N)=O)NC(=O)[C@H](CC2CCC2)NC(=O)[C@H](CCC(N)=O)NC(=O)[C@H](C)NC(=O)[C@H](Cc2c[nH]c3ccccc23)NC(=O)[C@H](Cc2ccc(O)cc2)NC(=O)[C@H](CCC(=O)O)NC1=O)[C@@H](C)O (single isomer, unassigned) [compound 359]
EC50 (RKO): 1 to 30 µM

From US20200289609A1, “PEPTIDOMIMETIC MACROCYCLES AND USES THEREOF” (Aileron Therapeutics, Inc., priority 2019, published 2020)
